Measured values published in the supplement of paper PMC10307832.

Experiments:
Assay in all cases: relative viability (nuclei count vs DMSO), 5 days (fraction); higher = more cells survive
[1] = compound: CC1=CC(=CC=C1)NC2=NC(=CS2)C3=CC=NC=C3 + CC(=O)c1c(C)c2cnc(Nc3ccc(N4CCNCC4)cn3)nc2n(C2CCCC2)c1=O [Palbociclib] (partner 0.5 µM)
Method in brief: (§1)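 Medians of duplicate plates are given as relative viability. That measure is the nuclei count in treated wells divided by the count in vehicle wells. Counts were taken on 4× images of lung cancer cell lines in 1536-well plates, 5 days after pin-tool dosing the day after seeding with one drug alone or a fixed anchor-drug dose plus five library-drug doses (not always all listed) in √10 steps.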

[2] = compound: CC1=CC(=CC=C1)NC2=NC(=CS2)C3=CC=NC=C3 + C[C@]1(O)C[C@@H](c2nc(-c3ccc4ccc(-c5ccccc5)nc4c3)c3c(N)nccn32)C1 [Linsitinib] (partner 1 µM)
Method in brief: as §1

[3] = compound: CC1=CC(=CC=C1)NC2=NC(=CS2)C3=CC=NC=C3 + O=C(c1cc(Cc2n[nH]c(=O)c3ccccc23)ccc1F)N1CCN(C(=O)C2CC2)CC1 [Olaparib] (partner 8 µM)
Method in brief: as §1

Masitinib + Crizotinib = compound: Cc1ccc(NC(=O)c2ccc(CN3CCN(C)CC3)cc2)cc1Nc1nc(-c2cccnc2)cs1 [Masitinib] + C[C@@H](Oc1cc(-c2cnn(C3CCNCC3)c2)cnc1N)c1c(Cl)ccc(F)c1Cl [Crizotinib] (partner 1 µM)
Method in brief: as §1

For UMC-11, which relative viability ([1]; first compound 0.08 µM) is on record?
The relative viability was 0.339.

And the relative viability ([1]; first compound 0.253 µM)?
Its relative viability is 0.311.

What about the relative viability ([1]; first compound 0.8 µM) of the same cell line?
The relative viability was 0.305.

What about the relative viability ([1]; first compound 2.53 µM) of the same cell line?
Its relative viability is 0.334.

And the relative viability ([1]; first compound 8 µM)?
The relative viability was 0.313.

And the relative viability ([2]; first compound 0.08 µM)?
The relative viability was 0.983.

What about the relative viability ([2]; first compound 0.253 µM) of the same cell line?
Its relative viability is 1.

And the relative viability ([2]; first compound 0.8 µM)?
Its relative viability is 1.01.

What about the relative viability ([2]; first compound 2.53 µM) of the same cell line?
Its relative viability is 0.977.

What about the relative viability ([2]; first compound 8 µM) of the same cell line?
The relative viability was 1.05.

What about the relative viability ([3]; first compound 0.08 µM) of the same cell line?
The relative viability was 0.339.

And the relative viability ([3]; first compound 0.253 µM)?
The relative viability was 0.386.

What about the relative viability ([3]; first compound 0.8 µM) of the same cell line?
Its relative viability is 0.381.

And the relative viability ([3]; first compound 2.53 µM)?
Its relative viability is 0.806.

What about the relative viability ([3]; first compound 8 µM) of the same cell line?
Its relative viability is 0.402.

What about the relative viability (Masitinib + Crizotinib; first compound 0.01 µM) of the same cell line?
The relative viability was 0.467.

And the relative viability (Masitinib + Crizotinib; first compound 0.03162 µM)?
The relative viability was 0.677.

And the relative viability (Masitinib + Crizotinib; first compound 0.1 µM)?
The relative viability was 0.706.

And the relative viability (Masitinib + Crizotinib; first compound 0.3162 µM)?
Its relative viability is 0.571.

And the relative viability (Masitinib + Crizotinib; first compound 1 µM)?
Its relative viability is 0.691.
